Experimental data reported in patent publication US10245249B2, “Pharmaceutical compositions comprising nitroxyl donors” (Cardioxyl Pharmaceuticals, Inc., priority 2013, dated 2019).

Tests used:
dogs [1] = assay: Canine implanted central catheter 72 hour continuous infusion model (clinical and microscopic pathology of vasculature); assay type: in vivo
Method: To determine the cause of the inflammation and hind limb swelling, a series of 72-hour continuous infusion investigative studies were conducted over the following 6 months. […] The first site of inflammation, the catheter insertion site, caused the dog hind limb swelling and inflammation observed in the early-terminated follow-up study. Increasing infusate pH from 4 to 6 decreased inflammation, improving the inflammatory profile by approximately 3-fold (see FIG. 4).
Confirmation of this was obtained through evaluating the nitroxyl donors through detailed histopathology of the vasculature at the site of insertion of into the femoral vein (15 cm distal to the catheter tip), along the catheter track to the catheter tip, and past the tip downstream 20 cm.
A composite score was calculated from the sum of these findings scores. In FIG. 3, the cumulative histology composite score ranges from 0-2 (low severity) to 11-12 (high severity). […] The NOAEL values determined based on these microscopic pathology markers for a series of nitroxyl donors, expressed in molar equivalent dose rates (μg/kg/min) to CXL-1020, are provided in Table 8.

[2] = In vitro stability (half-life) in human plasma; assay type: in vitro ADME; details: male, human plasma pH 7.4 with anticoagulant, 37° C., read-out: T1/2 (minutes) Human
Method: (§1) Certain compounds from Tables 1 and 2 and CXL-1020 were tested for their stability in phosphate buffered saline (PBS) and plasma. The assay system comprised (i) PBS, or plasma from rat, dog or human (at least 3 donors, male, pooled) at pH 7.4, and (ii) for tests conducted in plasma, an anticoagulant (sodium heparin or sodium citrate). Each test compound (5 μM) was incubated in PBS or plasma at 37° C. on a THERMOMIXER® with shaking. Three samples (n=3) were taken at each of seven sampling time points: 0, 10, 30, 60, 90, 180 and 360 minutes. The samples were immediately combined with 3 volumes (i.e., 3 times the volume of PBS or plasma) of acetonitrile containing 1% formic acid and an internal standard to terminate the reaction. AB SCIEX API 3000 LC-MS/MS analysis of the test compounds was performed without a standard curve. Half-lives (T1/2) of the test compounds were determined from graphs of the percent remaining values using the peak area response ratio. For compounds tested multiple times, the value provided in the Table represents an average of the replicate assays.

[3] = In vitro stability (half-life) in dog plasma; assay type: in vitro ADME; details: male, dog, plasma, pH 7.4, 5 μM, dog plasma pH 7.4 with anticoagulant, 37° C.; read-out: T1/2 (minutes) Dog
Method: as §1

beagle dogs = assay: Canine peripheral vein toxicity model, 24 hour infusion (clinical pathology markers of inflammation: WBC, fibrinogen, CRP); assay type: in vivo
Method: Key inflammatory markers measured include white blood cells (WBC), fibrinogen, and C-reactive protein (CRP).
After 24 hours of infusion, clinical pathology changes similar to those observed in previous studies using an implanted central catheter were detected.
Studies were conducted in male and female beagle dogs. Animals were allowed free access to drinking water and a commercial canine diet under standard laboratory conditions. Animals were fasted prior to blood sample collections when indicated by the study protocol. Fluorescent lighting was provided via an automatic timer for approximately 12 hours per day. On occasion, the dark cycle was interrupted intermittently due to study-related activities. Temperature and humidity were monitored and recorded daily and maintained to the maximum extent possible between 64° F. to 84° F. and 30% to 70%, respectively. The dogs were acclimated for a period of at least 1 week. During this period, the animals were weighed weekly and observed with respect to general health and any signs of disease. The animals were acclimated to wearing a jacket for at least three days prior to dose administration. Additionally, the animals were also acclimated to wearing an Elizabethan collar (e-collar) during the jacket acclimation.
Animals were catheterized the day prior to dose administration. A percutaneous catheter was placed (using aseptic technique and sterile bandaging) in the cephalic vein distal to the elbow. The animals were free-moving in their cages during continuous infusion dose administration. To facilitate continuous infusion dose administration, the peripheral catheter was attached to an extension set routed underneath a canine jacket and then attached to a tether infusion system. To prevent the animals from accessing/removing the peripherally placed percutaneous catheter, the catheterization site was bandaged using Vet Wrap and an e-collar was placed on the animals for the duration of the treatment (i.e., the catheterized period). During the pretreatment period, the venous catheter was infused continuously at a rate of approximately 2-4 mL/hr with 0.9% sodium chloride for injection, USP (saline) to maintain catheter patency. Prior to dosing, the infusion system was pre-filled (slow bolus infusion) with the respective dosing solution to ensure that dosing began as soon as the infusion pump was started. The infusion line was connected to a reservoir containing the control or test compound and the infusion was started. Test compositions were infused continuously, at a predetermined constant infusion rate (1 or 2 mL/kg/hr), for 24 hours and were compared at molar equivalent dose rates.
A detailed clinical examination of each animal was performed twice daily and body temperature measurements and blood samples for clinical pathology were collected from all animals pre-dose and 6 hours, 12 hours, 24 hours and 72 hours post start of composition infusion. At the termination of the study, all animals were euthanized at their scheduled necropsy and complete necropsy examinations were performed. Selected tissues were collected, fixed and stored for potential future microscopic examination. The cephalic vein containing the infusion catheter was dissected intact along with the brachial vein and examined along its entire length. The location of the catheter tip was marked on the unfixed specimen. After fixation, the specimen was trimmed and processed to slide to provide transverse histologic sections representing the catheter tip and surrounding tissues both proximal and distal to the catheter tip (i.e., 1 cm distal to the catheter tip, at the catheter tip, and 1, 5, 10, 15, and 20 cm proximal to the catheter tip). Relative to the catheter tip, “proximal” was defined as closer to the heart and “distal” was defined as further from the heart.
Each compound was formulated with CAPTISOL® (7% w/v) in sterile water at a pH of 4. […]

[4] = In vitro stability (half-life) in phosphate buffered saline (PBS) pH 7.4; assay type: physicochemical; details: pH 7.4, 5 μM, PBS pH 7.4, 37° C., read-out: T1/2 (minutes) PBS
Method: as §1

dogs [5] = assay: Toxicological profile of compositions formulated at pH 4 or pH 6, 24 hour infusion at 3 μg/kg/min; assay type: in vivo; details: 1:1 molar donor:CAPTISOL, infused at 3 μg/kg/min, FIG. 4
Method: For samples at a pH of 4, the compositions were prepared by admixing a 1:1 molar ratio of the nitroxyl donor:CAPTISOL®, lyophilizing the admixture, then diluting the lyophilized admixture into D5W. For samples at a pH of 6, the compositions were prepared by admixing a 1:1 molar ratio of the nitroxyl donor:CAPTISOL®, lyophilizing the admixture, then diluting the lyophilized admixture into D5W with 5 mM potassium phosphate. Compounds were infused at a rate of 3 μg/kg/min.

[6] = Exploratory studies on the cause of CXL-1020 side effects (byproduct, alternative short half-life donors); assay type: in vivo; details: studies conducted with the byproduct
Method: Exploratory studies were continued to determine the cause of the undesirable side effects of CXL-1020 at the higher, but still clinically desirable, doses. […] Studies were conducted with alternative Nitroxyl donors that were structurally unrelated to CXL-1020 but had similar half-lives for nitroxyl donation (half-lives of about 2 minutes). In all instances, local vascular side effects at the catheter tip were observed.

Row | Structure (SMILES) | NOAEL (μg/kg/min) (molar equivalent to CXL-1020) (dogs [1]; based on microscopic pathology markers (edema, hemorrhage, vascular and perivascular inflammation)) | toxicological profile relative to CXL-1020 (dogs [1]; microscopic pathology, Table 8) | half-life at 5 μM [2] | half-life at 5 μM [3] | NOAEL (μg/kg/min) (actual) (beagle dogs; based on clinical pathology markers (WBC, fibrinogen, CRP), 24 hour infusion, CAPTISOL 7% w/v, pH 4) | NOAEL compared with CXL-1020 (beagle dogs; clinical pathology markers) | half-life at 5 μM [4] | effect of increasing infusate pH from approximately 4 to approximately 6 on toxicology (dogs [5]) | side effects [6]
1 | O=S(=O)(NO)c1ccc(Cl)s1 [Compound 86, 5-Chloro-N-hydroxythiophene-2-sulfonamide] | ≥180 µg/kg/min | substantially improved toxicological profile relative to CXL-1020 | 18 min | 12 min | 3 µg/kg/min | significantly higher than that of CXL-1020 | 38 min | improved the toxicology | 
2 | CS(=O)(=O)c1ccccc1S(=O)O [byproduct of CXL-1020] |  |  |  |  |  |  |  |  | negative
